Measured values from ChEMBL document CHEMBL6109061, “Discovery of an Ultralong-acting Nondepolarizing Neuromuscular Blocker That Displays Short Onset Time and On-Demand Rapid Reversal by a Biocompatible Antagonist” (J Med Chem, 2025).
Active and inactive are the calls of the source. No cut-off for these calls is given here.

How the values were obtained:
[1] = Solubility of compound in water; assay type: physicochemical
Rattus norvegicus [2] = test: Neuromuscular block activity in propofol-induced anesthetized iv dosed Sprague-Dawley rat model assessed as minimum dose for complete neuromuscular block; assay type: functional; conditions: read-out: MED
Rattus norvegicus [3] = test: Neuromuscular block activity in propofol-induced anesthetized Sprague-Dawley rat model assessed as inhibition of twitch by measuring twitch intensity of quadriceps muscle at 0.3 mg/kg, iv administered as bolus dose by TOF watch monitor analysis relative to control; assay type: functional
Rattus norvegicus [4] = test: Neuromuscular block activity in propofol-induced anesthetized Sprague-Dawley rat model assessed as reduction in twitch inhibition by measuring twitch intensity of quadriceps muscle at 0.3 mg/kg, iv administered as bolus dose by TOF watch monitor analysis; assay type: functional, organism-based
Rattus norvegicus [5] = test: Neuromuscular block activity in propofol-induced anesthetized Sprague-Dawley rat model assessed as inhibition of twitch by measuring twitch intensity of quadriceps muscle at 5 mg/kg, iv administered as bolus dose by TOF watch monitor analysis relative to control; assay type: functional
Rattus norvegicus [6] = test: Neuromuscular block activity in propofol-induced anesthetized Sprague-Dawley rat model assessed as inhibition of twitch by measuring twitch intensity of quadriceps muscle at 0.04 mg/kg, iv administered as bolus dose by TOF watch monitor analysis relative to control; assay type: functional
Rattus norvegicus [7] = test: Neuromuscular block activity in propofol-induced anesthetized Sprague-Dawley rat model assessed as inhibition of twitch by measuring twitch intensity of quadriceps muscle at 0.5 mg/kg, iv administered as bolus dose by TOF watch monitor analysis relative to control; assay type: functional
Rattus norvegicus [8] = species on record: Rattus norvegicus; test: Recovery of Pan-induced neuromuscular block in Sprague-Dawley rat assessed as […] ratio (TOFr) <= 25% by measuring recovery time; assay type: functional
Rattus norvegicus [9] = test: Neuromuscular block activity in propofol-induced anesthetized Sprague-Dawley rat model assessed as inhibition of twitch by measuring twitch intensity of quadriceps muscle at 0.6 mg/kg, iv administered as bolus dose by TOF watch monitor analysis relative to control; assay type: functional
Rattus norvegicus [10] = test: Neuromuscular block activity in propofol-induced anesthetized Sprague-Dawley rat model assessed as time duration of 0 to 25 percent recovery indices at 0.04 mg/kg, iv; assay type: functional
Rattus norvegicus [11] = test: Neuromuscular block activity in propofol-induced anesthetized Sprague-Dawley rat model assessed as recovery time at 0.04 mg/kg, iv; assay type: functional
Rattus norvegicus [12] = test: Neuromuscular block activity in propofol-induced anesthetized Sprague-Dawley rat model assessed as onset time required for twitch reduction at 0.04 mg/kg, iv; assay type: functional

Structure (SMILES) | solubility [1] [mM] | minimal effective dose (Rattus norvegicus [2]) [mg/kg] | inhibition in vivo at 0.3 mg/kg (Rattus norvegicus [3]) [%] | inhibition in vivo at 0.04 mg/kg (Rattus norvegicus [6]) [%] | also measured
Cc1n2cc[n+]1Cc1ccc(cc1)C[n+]1ccn(c1C)CCCn1cc[n+](c1C)Cc1ccc(cc1)C[n+]1ccn(c1C)CCC2 |  |  |  | 0 | inhibition in vivo at 5 mg/kg (Rattus norvegicus [5]): 100%; inhibition in vivo at 0.5 mg/kg (Rattus norvegicus [7]): 0%
c1c[n+]2ccc1CCCc1cc[n+](cc1)Cc1ccc(cc1)Oc1ccc(cc1)C[n+]1ccc(cc1)CCCc1cc[n+](cc1)Cc1ccc(cc1)Oc1ccc(cc1)C2 |  |  | 38 | 0 | inhibition in vivo at 0.6 mg/kg (Rattus norvegicus [9]): 100%
[Cl-].[Cl-].[Cl-].[Cl-].c1ccc2c(c1)n1c[n+]2Cc2ccc(cc2)Oc2ccc(cc2)C[n+]2cn(c3ccccc32)CCCCCn2c[n+](c3ccccc32)Cc2ccc(cc2)Oc2ccc(cc2)C[n+]2cn(c3ccccc32)CCCCC1 | ~0.5 |  |  | 0 | Time (Rattus norvegicus [10]): 27 min
Cc1n2cc[n+]1Cc1ccc(cc1)Oc1ccc(cc1)C[n+]1ccn(c1C)CCCCn1cc[n+](c1C)Cc1ccc(cc1)Oc1ccc(cc1)C[n+]1ccn(c1C)CCCC2.[Cl-].[Cl-].[Cl-].[Cl-] | ≥ 50 |  |  | 100 | Time (Rattus norvegicus [11]): 16 min; Time (Rattus norvegicus [12]): 102 s; Time (Rattus norvegicus [10]): 47 min
[Cl-].[Cl-].[Cl-].[Cl-].c1cc2ccc1Cc1ccc(cc1)C[n+]1ccn(c1)Cc1ccc(cc1)Cn1cc[n+](c1)Cc1ccc(cc1)Cc1ccc(cc1)C[n+]1ccn(c1)Cc1ccc(cc1)Cn1cc[n+](c1)C2 | ≥ 50 | 1.8 | 17 |  | Time (Rattus norvegicus [8]): 32 min
Cc1n2cc[n+]1Cc1ccc(cc1)Oc1ccc(cc1)C[n+]1ccn(c1C)CCCCCn1cc[n+](c1C)Cc1ccc(cc1)Oc1ccc(cc1)C[n+]1ccn(c1C)CCCCC2.[Cl-].[Cl-].[Cl-].[Cl-] | ≥ 50 |  |  | 58 | 
Cc1n2cc[n+]1Cc1ccc(cc1)Oc1ccc(cc1)C[n+]1ccn(c1C)Cc1cccc(c1)Cn1cc[n+](c1C)Cc1ccc(cc1)Oc1ccc(cc1)C[n+]1ccn(c1C)Cc1cccc(c1)C2.[Cl-].[Cl-].[Cl-].[Cl-] | ≥ 50 | 0.1 | 100 | 54 | 
CCc1n2cc[n+]1Cc1ccc(cc1)Oc1ccc(cc1)C[n+]1ccn(c1CC)CCCCCn1cc[n+](c1CC)Cc1ccc(cc1)Oc1ccc(cc1)C[n+]1ccn(c1CC)CCCCC2.[Cl-].[Cl-].[Cl-].[Cl-] | ≥ 50 |  |  | 100 | Time (Rattus norvegicus [11]): 13 min; Time (Rattus norvegicus [12]): 222 s
Cc1n2cc[n+]1Cc1cccc(c1)C[n+]1ccn(c1C)CCCn1cc[n+](c1C)Cc1cccc(c1)C[n+]1ccn(c1C)CCC2 |  |  |  | 0 | inhibition in vivo at 5 mg/kg (Rattus norvegicus [5]): 100%; inhibition in vivo at 0.5 mg/kg (Rattus norvegicus [7]): 11%
Cc1n2cc[n+]1Cc1ccc(cc1)Oc1ccc(cc1)C[n+]1ccn(c1C)Cn1cc[n+](c1C)Cc1ccc(cc1)Oc1ccc(cc1)C[n+]1ccn(c1C)C2.[Cl-].[Cl-].[Cl-].[Cl-] | ≥ 50 |  |  | 63 | 
Cc1n2cc[n+]1Cc1ccc(cc1)Oc1ccc(cc1)C[n+]1ccn(c1C)CCCCCCCn1cc[n+](c1C)Cc1ccc(cc1)Oc1ccc(cc1)C[n+]1ccn(c1C)CCCCCCC2.[Cl-].[Cl-].[Cl-].[Cl-] | ≥ 50 |  |  | 100 | Time (Rattus norvegicus [11]): 18 min; Time (Rattus norvegicus [12]): 498 s; Time (Rattus norvegicus [10]): 61 min
[Cl-].[Cl-].[Cl-].[Cl-].c1cc2ccc1Cc1ccc(cc1)C[n+]1ccn(c1)Cc1ccc(o1)Cn1cc[n+](c1)Cc1ccc(cc1)Cc1ccc(cc1)C[n+]1ccn(c1)Cc1ccc(o1)Cn1cc[n+](c1)C2 | ≥ 50 | 5 | 0 |  | Activity (Rattus norvegicus [4]): inactive

Continued, in another order:

solubility [1] [mM] | Structure (SMILES) | minimal effective dose (Rattus norvegicus [2]) [mg/kg] | inhibition in vivo at 0.3 mg/kg (Rattus norvegicus [3]) [%] | inhibition in vivo at 0.04 mg/kg (Rattus norvegicus [6]) [%] | also measured
≥ 50 | O=C(O)c1cc2cc(c1)Cn1cc[n+](c1)Cc1ccc(cc1)-c1ccc(cc1)C[n+]1ccn(c1)Cc1cc(cc(C(=O)O)c1)Cn1cc[n+](c1)Cc1ccc(cc1)-c1ccc(cc1)C[n+]1ccn(c1)C2.[Cl-].[Cl-].[Cl-].[Cl-] | 1.2 | 0 |  | Activity (Rattus norvegicus [4]): inactive
≥ 50 | [Cl-].[Cl-].[Cl-].[Cl-].c1cc2cc(c1)Cn1cc[n+](c1)Cc1ccc(cc1)-c1ccc(cc1)C[n+]1ccn(c1)Cc1cccc(c1)Cn1cc[n+](c1)Cc1ccc(cc1)-c1ccc(cc1)C[n+]1ccn(c1)C2 | 0.6 | 43 |  | 
≥ 50 | [Cl-].[Cl-].[Cl-].[Cl-].c1cc2ccc1Cn1cc[n+](c1)Cc1ccc(cc1)Oc1ccc(cc1)C[n+]1ccn(c1)Cc1ccc(cc1)Cn1cc[n+](c1)Cc1ccc(cc1)Oc1ccc(cc1)C[n+]1ccn(c1)C2 | 0.9 | 2 |  | Time (Rattus norvegicus [8]): 30 min
≥ 50 | COC(=O)c1cc2cc(c1)Cn1cc[n+](c1)Cc1ccc(cc1)Oc1ccc(cc1)C[n+]1ccn(c1)Cc1cc(cc(C(=O)OC)c1)Cn1cc[n+](c1)Cc1ccc(cc1)Oc1ccc(cc1)C[n+]1ccn(c1)C2.[Cl-].[Cl-].[Cl-].[Cl-] | 0.6 | 50 |  | 
≥ 50 | [Cl-].[Cl-].[Cl-].[Cl-].c1cc2ccc1Cn1cc[n+](c1)Cc1ccc(cc1)-c1ccc(cc1)C[n+]1ccn(c1)Cc1ccc(cc1)Cn1cc[n+](c1)Cc1ccc(cc1)-c1ccc(cc1)C[n+]1ccn(c1)C2 | 1.2 | 3 |  | Time (Rattus norvegicus [8]): 36 min
≥ 50 | O=C(O)c1cc2cc(c1)Cn1cc[n+](c1)Cc1ccc(cc1)Oc1ccc(cc1)C[n+]1ccn(c1)Cc1cc(cc(C(=O)O)c1)Cn1cc[n+](c1)Cc1ccc(cc1)Oc1ccc(cc1)C[n+]1ccn(c1)C2.[Cl-].[Cl-].[Cl-].[Cl-] | 1 | 0 |  | Activity (Rattus norvegicus [4]): inactive
≥ 50 | [Cl-].[Cl-].[Cl-].[Cl-].c1cc2ccc1C[n+]1ccn(c1)CCCCCn1cc[n+](c1)Cc1ccc(cc1)Oc1ccc(cc1)C[n+]1ccn(c1)CCCCCn1cc[n+](c1)Cc1ccc(cc1)O2 |  |  | 100 | Time (Rattus norvegicus [11]): 31 min; Time (Rattus norvegicus [12]): 138 s; Time (Rattus norvegicus [10]): 41 min
≥ 50 | [Cl-].[Cl-].[Cl-].[Cl-].c1cc2cc(c1)Cn1cc[n+](c1)Cc1ccc(cc1)Cc1ccc(cc1)C[n+]1ccn(c1)Cc1cccc(c1)Cn1cc[n+](c1)Cc1ccc(cc1)Cc1ccc(cc1)C[n+]1ccn(c1)C2 | 2 | 15 |  | 
≥ 50 | COC(=O)c1cc2cc(c1)Cn1cc[n+](c1)Cc1ccc(cc1)-c1ccc(cc1)C[n+]1ccn(c1)Cc1cc(cc(C(=O)OC)c1)Cn1cc[n+](c1)Cc1ccc(cc1)-c1ccc(cc1)C[n+]1ccn(c1)C2.[Cl-].[Cl-].[Cl-].[Cl-] | 1.5 | 5 |  | 
≥ 50 | [Cl-].[Cl-].[Cl-].[Cl-].c1cc2cc(c1)Cn1cc[n+](c1)Cc1ccc(cc1)Oc1ccc(cc1)C[n+]1ccn(c1)Cc1cccc(c1)Cn1cc[n+](c1)Cc1ccc(cc1)Oc1ccc(cc1)C[n+]1ccn(c1)C2 | 0.16 | 100 |  | 
